Source: PubChem BioAssay (NCI)
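Values below derive from 48-hour exposures of cells grown in 96-well plates, with endpoints linearly interpolated between the two concentrations bracketing the appropriate inhibition level. TGI denotes the concentration required for complete inhibition of growth.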

Columns and labels:
Assay in all cases: DTP human tumour cell line panel, 48 h
ACHN renal = test system: ACHN renal
SK-MEL-28 melanoma = test system: SK-MEL-28 melanoma
NCI-H226 lung = test system: NCI-H226 lung
HCT-116 colon = test system: HCT-116 colon
A549 NSCLC = test system: A549 NSCLC
HOP-62 NSCLC = test system: HOP-62 NSCLC
MDA-MB-435 = test system: MDA-MB-435
MCF7 breast = test system: MCF7 breast
UO-31 renal = test system: UO-31 renal
NCI-H522 lung = test system: NCI-H522 lung
SF-539 CNS = test system: SF-539 CNS
SNB-75 CNS = test system: SNB-75 CNS
HT29 colon = test system: HT29 colon
SW-620 colon = test system: SW-620 colon
LOX IMVI melanoma = test system: LOX IMVI melanoma
SN12C renal = test system: SN12C renal
NCI-H23 lung = test system: NCI-H23 lung
UACC-62 melanoma = test system: UACC-62 melanoma
MDA-N = test system: MDA-N
BT-549 breast = test system: BT-549 breast
OVCAR-4 ovarian = test system: OVCAR-4 ovarian
SF-268 CNS = test system: SF-268 CNS
CAKI-1 renal = test system: CAKI-1 renal
RXF 393 renal = test system: RXF 393 renal
SK-OV-3 ovarian = test system: SK-OV-3 ovarian
SK-MEL-2 melanoma = test system: SK-MEL-2 melanoma
SF-295 CNS = test system: SF-295 CNS
TK-10 renal = test system: TK-10 renal
NCI/ADR-RES ovarian = test system: NCI/ADR-RES ovarian
MALME-3M melanoma = test system: MALME-3M melanoma
SK-MEL-5 melanoma = test system: SK-MEL-5 melanoma
KM12 colon = test system: KM12 colon
IGROV1 ovarian = test system: IGROV1 ovarian
PC-3 prostate = test system: PC-3 prostate
HS 578T breast = test system: HS 578T breast
SNB-19 CNS = test system: SNB-19 CNS
U251 CNS = test system: U251 CNS
COLO 205 colon = test system: COLO 205 colon
OVCAR-8 ovarian = test system: OVCAR-8 ovarian
DU-145 prostate = test system: DU-145 prostate
UACC-257 melanoma = test system: UACC-257 melanoma
OVCAR-5 ovarian = test system: OVCAR-5 ovarian
CCRF-CEM leukemia = test system: CCRF-CEM leukemia
MOLT-4 leukemia = test system: MOLT-4 leukemia
M14 melanoma = test system: M14 melanoma
NCI-H460 lung = test system: NCI-H460 lung
RPMI-8226 leukemia = test system: RPMI-8226 leukemia
HOP-92 NSCLC = test system: HOP-92 NSCLC
HCC-2998 colon = test system: HCC-2998 colon
EKVX NSCLC = test system: EKVX NSCLC
OVCAR-3 ovarian = test system: OVCAR-3 ovarian
K-562 leukemia = test system: K-562 leukemia
T-47D breast = test system: T-47D breast
786-0 renal = test system: 786-0 renal
A498 renal = test system: A498 renal
HCT-15 colon = test system: HCT-15 colon
MDA-MB-231 breast = test system: MDA-MB-231 breast
HL-60(TB) leukemia = test system: HL-60(TB) leukemia

Measured: TGI

CC1(C(=O)O)CCC(C(=O)O)C(C)(C)O1 (stereo unspecified)
not listed: 786-0 renal | A498 renal | HCT-15 colon | MDA-MB-231 breast | HL-60(TB) leukemia
> 100 µM: all other assays above

CC(C)OP(=O)(c1ccccc1)c1ccc2c(c1)OCCOCCOCCOCCO2 (stereo unspecified)
not listed: OVCAR-4 ovarian | CAKI-1 renal | RXF 393 renal | SK-MEL-2 melanoma | NCI/ADR-RES ovarian | U251 CNS | OVCAR-5 ovarian | M14 melanoma | HOP-92 NSCLC | OVCAR-3 ovarian
> 100 µM: all other assays above

Cc1ccc(Nc2nc(C)c(C(=O)CC(=O)C(=O)Nc3c(C)cccc3C(C)(C)C)s2)cc1
not listed: SK-MEL-28 melanoma | SNB-75 CNS | MALME-3M melanoma
> 100 µM: all other assays above
